Read-outs that look alike come from different tables or passages of the source.

The test system of assay [1] is TPP aptamer with 5' splice site region of THIC mRNA from A. thaliana. The assay can be described thus: In-line probing of TPP aptamer with 5' flank (nts -14-261 relative to 5' splice site). The format is binding, Arabidopsis thaliana. Conditions: 10 μM TPP. As for the experimental part: (A) TPP causes changes in RNA structure near to the 5′ splice site, which is important for the formation of THIC type III RNA. For in-line probing, a 5′ ^32P-labelled RNA starting 14 nts upstream of the 5′ splice site (+1) and expanding to the 3′ end of the TPP aptamer (nucleotides-14-261) from A. thaliana was incubated in the absence (−) or presence (+) of 10 μM TPP and the resulting spontaneous cleavage products were separated by polyacrylamide gel electrophoresis. Markers are RNAs partially digested with RNase T1 (T1) or alkali (^−OH). The graph depicts the relative band intensities in the lanes indicated. (B) Base-pairing potential between the 5′ splice site region and the P4-P5 stems of the TPP aptamer (SEQ ID NOs:34-47; complementary nucleotides are shaded). Stretches of complementary nucleotides are also present in all other plant THIC mRNA sequences available. […]
In-line probing assays were conducted essentially as described previously (Sudarsan et al., 2003; Winkler et al., 2002). […] Cleavage products were resolved by denaturing 10% PAGE, visualized by PhosphorImager (GE Healthcare), and quantitated using ImageQuant software. The apparent KD value, reflecting the concentration of TPP needed to half-maximally modulate RNA structure, was determined by plotting the normalized fraction of RNA cleaved versus the logarithm of TPP concentration.

Assay [2] deals with full-length TPP aptamer from A. thaliana. The conditions noted are these: read-out: apparent dissociation constant (KD) of full-length aptamer for TPP; cited from earlier work.
Assay [3] has as its system altered TPP aptamer in THIC-III RNA from A. thaliana. Kind of assay: In-line probing of TPP binding by the spliced (altered) TPP aptamer of THIC type III RNA. Further details: species or system Arabidopsis thaliana.
Source text: (B) In-line probing analysis of TPP binding by the spliced aptamer depicted in (A). Lanes include RNAs loaded after no reaction (NR), after partial digestion with RNase T1 (T1), or after partial digestion with alkali (^−OH). Sites 1 and 2 were quantified to establish the KD as shown in (C). (C) Plot indicating the normalized fraction of RNA spontaneously cleaved versus the concentration of TPP for sites 1 and 2 in (B).
In-line probing (Soukup and Breaker, 1999) was used to determine whether this altered aptamer retains TPP binding activity.
In-line probing assays were conducted essentially as described previously (Sudarsan et al., 2003; Winkler et al., 2002). […] For in-line probing analysis, the labeled RNA was incubated at room temperature for 40 hours in 50 mM Tris-HCl (pH 8.3 at 23° C.), 20 mM MgCl2, and 100 mM KCl in the absence or presence of varying concentrations of TPP. Cleavage products were resolved by denaturing 10% PAGE, visualized by PhosphorImager (GE Healthcare), and quantitated using ImageQuant software. The apparent KD value, reflecting the concentration of TPP needed to half-maximally modulate RNA structure, was determined by plotting the normalized fraction of RNA cleaved versus the logarithm of TPP concentration.
Assay [4] concerns THIC transcripts. As for the experimental part: (§1) (A) qRT-PCR analysis was conducted on THIC transcripts from A. thaliana seedlings grown for 14 days on medium supplemented with 0, 0.1, and 1 mM thiamin. Total THIC transcripts and separately types I, II and III RNAs were detected using different primer combinations. cDNAs were generated using a polyT primer or random hexamers for detection of type I RNAs. Expression was normalized for each primer combination to the value measured using medium with no thiamin supplementation (open bars). Values are averages from three independent experiments and error bars represent standard deviation. (B) Northern blot analysis of THIC transcripts from the same samples described in (A). 20 μg total RNA was loaded per lane and analyzed using probes binding to the coding region of THIC, the extended 3′ UTR of types I and III RNAs, or the control transcript EIF4A1. […] (C) qRT-PCR analysis of the time-dependent effects of thiamin treatment on THIC transcripts from A. thaliana. Seedlings were grown for 14 days on thiamin free medium and subsequently sprayed with 50 μM thiamin and 0.25 mg ml^−1 Tween 80. Control seedlings were treated with a solution containing only Tween 80. Samples were collected after 4 h and 26 h and subjected to qRT-PCR analysis. Amounts of THIC transcripts were analyzed from cDNAs generated with polyT primer and normalized to the values of the control samples without application of thiamin (open bars). Values are averages from three independent experiments and error bars represent standard deviation. (D) Relative changes of the levels of THIC transcript types in wild-type (WT) and thiamin pyrophosphokinase double knockout (TPK-KO) A. thaliana plants. Seedlings were grown for 12 days on thiamin free medium and amounts of THIC transcript types were analyzed by qRT-PCR. Data were normalized to the values for the WT samples and reflect averages from three replicates, with error bars representing standard deviation.
(A) qRT-PCR analysis of total THIC transcripts from plants incubated for 48 h under continuous light. Plants were grown for 11 days in light/dark cycles (16/8 h) on medium without thiamin or medium supplemented with 100 μM thiamin. On the morning of the 12th day, plants were transferred to continuous light and samples were taken every 3 hours. Expression was normalized to the value of the sample at time point 0 from plants grown on thiamin free medium. Error bars represent standard deviation of triplicate qRT-PCR analyses. […] (B) qRT-PCR analysis of THIC type III RNAs. Plant material and data normalization are as described for (A).
The amount of THIC transcripts was established by using quantitative RT-PCR (qRT-PCR) to address whether transcript levels respond to increased thiamin concentrations. A. thaliana seedlings were supplemented with various amounts of thiamin and the different THIC transcript types were detected using specific primer combinations. The primer combination amplifying THIC-II also can bind to a subset of THIC-I RNAs that have undergone splicing of the first 3′ UTR intron.
Arabidopsis thaliana ecotype Columbia-0 plants were grown with soil at 23° C. in a growth chamber under 16/8 h (light/dark) photoperiod with 60% humidity unless otherwise stated. For seedling experiments, plants were grown on basal MS medium (Murashige and Skoog, 1962) supplemented with 2% sucrose and varying concentrations of thiamin and under continuous light unless otherwise specified. N. benthamiana plants for leaf infiltration assays were grown on soil for 3 to 5 weeks under continuous light.

For assay [5], the system named is THIC TPP riboswitch (3' region of AtTHIC fused to EGFP). As for the experimental part:
(A) Leaves from stably transformed A. thaliana lines expressing a reporter fusion of the complete 3′ region of AtTHIC fused to the 3′ end of EGFP were abscised and incubated with the petioles in water or in water supplemented with 0.02% thiamin. EGFP fluorescence was assessed at 0 h, 48 h, and 72 h after onset of treatment. One representative set of data from three repeats is shown, and the numbers identify different leaves from one transgenic line. (B) Quantitation of EGFP fluorescence of leaves depicted in (A) at three time points. The data represent average fluorescence intensity and standard deviation for each leaf. The plot also depicts average background fluorescence of WT leaves. (C) qRT-PCR analysis of total EGFP and THIC transcripts from leaves incubated for 72 h in water or 0.02% thiamin. Transcript amounts were standardized to an internal reference transcript and normalized to transcript abundance in water treated samples. Values are averages from four independent experiments using different transgenic lines and error bars represent standard deviation. (D,E) RT-PCR analysis of different 3′ UTRs of EGFP and THIC transcript types from A. thaliana reporter transformants grown in the absence of exogenous thiamin. For cDNA generation, a polyT primer, random hexamers or two different gene specific primers (binding either 221 or 882 nts downstream of the end of the aptamer) were used as indicated. The forward primers were specific for the end of the last exon of the coding region of EGFP (left) or THIC (right), whereas the reverse primer was either a polyT primer (D) or homologous to a region 221 nts downstream of the end of the aptamer (E). RT-PCR products were separated and visualized as described in the description of FIG. 2. M designates the marker lanes containing DNAs of 100 base-pair increments. No RT indicates a control reaction using the RNA without reverse transcription as a template source. I-1 and I-2 represent type I RNAs with the upstream intron following the stop codon unspliced or spliced, respectively.
(A) Secondary structure model and sequence of the WT TPP aptamer from A. thaliana genomic sequence and located in the 3′ region of THIC that was fused to EGFP (SEQ ID NOs: 32 and 33). […] (B) Quantitation of EGFP fluorescence in leaves from A. thaliana transformants expressing reporter constructs containing the WT aptamer sequence or mutated versions M2, M3 and M4. Leaves were excised and incubated with their petioles in water or 0.02% thiamin for 72 h before fluorescence analysis. Values are averages from at least three independent experiments using different transgenic lines. Error bars represent standard deviation. (C) qRT-PCR analyses of EGFP and THIC transcript amounts in A. thaliana transformants described in (B). Transcript amounts (standardized using a reference transcript) were normalized to transcript abundance in water treated samples. Values are averages from two to four independent experiments using different transgenic lines. Error bars represent standard deviation. (D,E) RT-PCR analyses of 3′ UTRs of EGFP and THIC transcripts from A. thaliana transformants with mutations M2 or M3. RT-PCR analyses were performed as described in the description of FIGS. 5D and 5E. Forward primers were homologous to the end of the last exon of the coding region of EGFP or THIC, and the reverse primer was a polyT primer (D) or complementary to a region 221 nts downstream of the end of the aptamer (E). Kbp designates kilobase pairs.

The test system of assay [6] is THIC promoter from A. thaliana. The conditions noted are these: 100 μM thiamin, 9 day old seedlings.
Source text: A construct consisting of a 1595 by fragment of the THIC promoter from A. thaliana was fused to the reporter gene β-glucuronidase (GUS) and transformed into A. thaliana. […] Data are mean values from three different transgenic lines and from three independent experiments. Error bars represent standard deviation.
The test system of assay [7] is THIC transcripts. Conditions: seedlings on thiamin-supplemented medium. As for the experimental part: as §1
Setting [8] is: 26 h after spraying with 50 μM thiamin.
[9] abbreviates: four hours after spraying seedlings with 50 μM thiamin.

For the compound `Cc1ncc(C[n+]2csc(CCO[P@](=O)(O)OP(=O)(O)O)c2C)c(N)n1` [TPP, thiamine pyrophosphate], the “structural modulation of nucleotides near the 5' splice site” value in assay [1] is “increase in structural flexibility”. Further, the Kd in assay [2] is ~0.05 µM; in assay [3] (in-line probing, spliced aptamer of THIC-III, read-out: apparent KD of the altered aptamer for TPP) it was ~60 µM. In assay [3] (altered aptamer vs full-length aptamer), the “loss in ligand-binding affinity versus full-length aptamer” value is “more than three orders of magnitude”. The “TPP binding by mutant M1 of the altered aptamer” value in assay [3] (mutation M1 in type III construct) is recorded as “completely abolish TPP binding”. Moreover, the “TPP binding by mutant M2 of the altered aptamer” value in assay [3] (mutation M2 in type III construct) is recorded as “completely abolish TPP binding”.
Consider `Cc1ncc(C[n+]2csc(CCO)c2C)c(N)n1` [thiamin], for which, in the assay on THIC transcripts [4] (setting [8]), the THIC-II level result is listed as “decreased even further” and the “total THIC RNA level” value is on record as “decreased even further”. Also, the “increase in THIC-III” value with THIC transcripts [4] (after spraying with 50 μM thiamin, early phase (4 h)) was “more pronounced in the early phase”. For the same compound, in the assay with THIC transcripts [4] (setting [9]), the “THIC-II amount relative to absence of added thiamin” value worked out at 50% and the “total THIC RNA amount relative to absence of added thiamin” value was determined as 50%. In the assay with THIC transcripts [4] (medium containing 1 mM thiamin), the “THIC-I transcripts copy number” value is “little or no change”, the THIC-II transcripts entry was “equivalent reduction” and the “THIC-III transcripts copy number” value is “little or no change”. Also, the “circadian rhythm of THIC expression” value with THIC transcripts [4] (medium supplemented with 100 μM thiamin, continuous light 48 h) is recorded as “not affected”. Besides, the “total amount of THIC transcripts relative to seedlings grown without thiamin supplementation” value in the assay with THIC transcripts [4] (seedlings grown on medium containing 1 mM thiamin, 14 days) is given as “approximately 20%”. In addition, the “amount of endogenous THIC transcripts relative to control levels” value in assay [5] (0.02% thiamin, 72 h, qRT-PCR) is recorded as “approximately 20%”. Also, the “amount of EGFP transcripts relative to control levels” value in assay [5] (WT construct, 0.02% thiamin, 72 h, qRT-PCR) is listed as “approximately 20%”. The “EGFP fluorescence in leaves” value in assay [5] (WT construct, 0.02% thiamin, rosette stage leaves) was “decreased”. In addition, the “responsiveness of reporter to thiamin application compared to WT construct” value (“responsiveness … compared to WT construct” below) in assay [5] (mutant aptamer M2, 0.02% thiamin 72 h) is given as “reduced”. For the same compound, in assay [5] (mutant aptamer M3, 0.02% thiamin 72 h), the “responsiveness … compared to WT construct” value is recorded as “complete loss”. The “responsiveness … compared to WT construct” value in assay [5] (mutant aptamer M4, 0.02% thiamin 72 h) is recorded as “complete loss”. Further, the “expression of reporter gene (GUS) driven by the THIC promoter” value in assay [6] is on record as “not altered”. For the same compound, in the assay with THIC transcripts [7], the “THIC-I RNA levels (Northern blot)” value was “remain relatively unchanged” and the “THIC-III RNA levels (Northern blot)” value is “remain relatively unchanged”. The “THIC-II levels (Northern blot)” value in the assay on THIC transcripts [7] (same samples as FIG. 3A) is “decrease”. In addition, the “binding to the altered aptamer” value in assay [3] (data not shown) is “does not bind”.

(Values after US20100221821A1, “METHODS AND COMPOSITIONS RELATED TO RIBOSWITCHES THAT CONTROL ALTERNATIVE SPLICING AND RNA PROCESSING” (YALE UNIVERSITY, priority 2007, published 2010).)
